# Reference: patent US5502035A, “N-terminus modified analogs of LHRH” (Tap Holdings Inc., priority 1994, dated 1996)
# Non-standard residues stand in square brackets, D forms with d. Residues, ends and D or L forms follow the SMILES beside them. Groups on a side chain read outwards from the residue. *: point of attachment. Shikimoyl = O=C(C1=C[C@@H](O)[C@@H](O)[C@H](O)C1)*; dPhe(4-Cl) = N[C@H](Cc1ccc(Cl)cc1)C(=O)O; d2Nal = N[C@H](Cc1ccc2ccccc2c1)C(=O)O; Lys(iPr) = CC(C)NCCCC[C@H](N)C(=O)O; NMeY = CN[C@@H](Cc1ccc(O)cc1)C(=O)O; d3Pal = N[C@H](Cc1cccnc1)C(=O)O; Isonicotinoyl = O=C(c1ccncc1)*; Salicyloyl = O=C(c1ccccc1O)*; Nicotinoyl = O=C(c1cccnc1)*; Ava = NCCCCC(=O)O; GABA = NCCCC(=O)O; βAla = NCCC(=O)O
# Molecular target: T1, LHRH (Rattus norvegicus, UniProt P30969)
# T1 construct: endogenous in cells; host or cells: rat pituitary cells (own knowledge of the cited Haviv 1989 method)
# T1 sequence (P30969 1-327): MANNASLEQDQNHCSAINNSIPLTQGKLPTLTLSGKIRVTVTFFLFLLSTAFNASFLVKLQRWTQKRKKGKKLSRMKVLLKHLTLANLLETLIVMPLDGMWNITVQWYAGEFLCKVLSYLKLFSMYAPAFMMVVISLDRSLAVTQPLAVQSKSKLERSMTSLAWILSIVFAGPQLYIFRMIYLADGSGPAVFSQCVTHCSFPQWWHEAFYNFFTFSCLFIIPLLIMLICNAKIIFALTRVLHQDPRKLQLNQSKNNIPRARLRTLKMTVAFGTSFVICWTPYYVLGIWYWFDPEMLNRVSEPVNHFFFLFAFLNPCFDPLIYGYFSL
# Assay: in vitro test for LHRH antagonist potency (pA2)
# Type: cell-based
# Conditions: negative logarithm of the antagonist concentration required to shift the response curve produced by the agonist leuprolide to two-fold higher concentration
# Description: Representative compounds of the present invention were evaluated in an in vitro test for LHRH antagonist potency (pA2). The test employed the method detailed in F. Haviv, et al. J. Med. Chem., 32:2340-2344 (1989). The values of pA2 are the negative logarithms of the concentration of the particular antagonist test compound required to shift the response curve produced by the agonist leuprolide to two-fold higher concentration. (Leuprolide is the LHRH agonist having the structure 5-oxo-Pro^1 -His^2 -Trp^3 -Ser^4 -Tyr^5 -D-Leu^6 -Leu^7 -Arg^8 -Pro^9 -NHEt and is disclosed and claimed in U.S. Pat. No. 4,005,063.) Typically pA2 values of 9.5 or greater are indicative of good LHRH antagonist potency, with values of 10.0 or greater being preferred.
row,Compound,Kb
1,"CC(C)C[C@H](NC(=O)[C@@H](CCCCNC(=O)c1cccnc1)NC(=O)[C@H](Cc1ccc(O)cc1)N(C)C(=O)[C@H](CO)NC(=O)[C@@H](Cc1cccnc1)NC(=O)[C@@H](Cc1ccc(Cl)cc1)NC(=O)[C@@H](Cc1ccc2ccccc2c1)NC(=O)CNC(=O)c1cccnc1)C(=O)N[C@@H](CCCCNC(C)C)C(=O)N1CCC[C@H]1C(=O)N[C@H](C)C(N)=O [Example 2f, N-Nicotinyl-Gly-D2Nal-D4ClPhe-D3Pal-Ser-NMeTyr-DLys(N-epsilon-Nicotinyl) -Leu-Lys(N-epsilon-Isopropyl)-Pro-DAlaNH2] (Nicotinoyl-G[d2Nal][dPhe(4-Cl)][d3Pal]S[NMeY][dK](Nicotinoyl)L[Lys(iPr)]P[dA]-NH2)",0.00891 nM
2,"CC(C)C[C@H](NC(=O)[C@@H](CCCCNC(=O)c1cccnc1)NC(=O)[C@H](Cc1ccc(O)cc1)N(C)C(=O)[C@H](CO)NC(=O)[C@@H](Cc1cccnc1)NC(=O)[C@@H](Cc1ccc(Cl)cc1)NC(=O)[C@@H](Cc1ccc2ccccc2c1)NC(=O)CNC(=O)c1ccncc1)C(=O)N[C@@H](CCCCNC(C)C)C(=O)N1CCC[C@H]1C(=O)N[C@H](C)C(N)=O [Example 2g, N-Isonicotinyl-Gly-D2Nal-D4ClPhe-D3Pal-Ser-NMeTyr-DLys(N-epsilon-Nicotinyl) -Leu-Lys(N-epsilon-Isopropyl)-Pro-DAlaNH2] (Isonicotinoyl-G[d2Nal][dPhe(4-Cl)][d3Pal]S[NMeY][dK](Nicotinoyl)L[Lys(iPr)]P[dA]-NH2)",0.00708 nM
3,"CC(C)C[C@H](NC(=O)[C@@H](CCCCNC(=O)c1cccnc1)NC(=O)[C@H](Cc1ccc(O)cc1)N(C)C(=O)[C@H](CO)NC(=O)[C@@H](Cc1cccnc1)NC(=O)[C@@H](Cc1ccc(Cl)cc1)NC(=O)[C@@H](Cc1ccc2ccccc2c1)NC(=O)CNC(=O)c1ccccc1O)C(=O)N[C@@H](CCCCNC(C)C)C(=O)N1CCC[C@H]1C(=O)N[C@H](C)C(N)=O [Example 2h, N-Salicyl-Gly-D2Nal-D4ClPhe-D3Pal-Ser-NMeTyr-DLys(N-epsilon-Nicotinyl) -Leu-Lys(N-epsilon-Isopropyl)-Pro-DAlaNH2] (Salicyloyl-G[d2Nal][dPhe(4-Cl)][d3Pal]S[NMeY][dK](Nicotinoyl)L[Lys(iPr)]P[dA]-NH2)",0.01 nM
4,"CC(C)C[C@H](NC(=O)[C@@H](CCCCNC(=O)c1cccnc1)NC(=O)[C@H](Cc1ccc(O)cc1)N(C)C(=O)[C@H](CO)NC(=O)[C@@H](Cc1cccnc1)NC(=O)[C@@H](Cc1ccc(Cl)cc1)NC(=O)[C@@H](Cc1ccc2ccccc2c1)NC(=O)CNC(=O)[C@@H]1CCCO1)C(=O)N[C@@H](CCCCNC(C)C)C(=O)N1CCC[C@H]1C(=O)N[C@H](C)C(N)=O [Example 4, N-(S)-Tetrahydrofur-2-oyl-Gly-D2Nal-D4ClPhe-D3Pal-Ser-NMeTyr-DLys(Nicotinyl) -Leu-Lys(N-epsilon-Isopropyl)-Pro-DAlaNH2]",0.00794 nM
5,"CC(C)C[C@H](NC(=O)[C@@H](CCCCNC(=O)c1cccnc1)NC(=O)[C@H](Cc1ccc(O)cc1)N(C)C(=O)[C@H](CO)NC(=O)[C@@H](Cc1cccnc1)NC(=O)[C@@H](Cc1ccc(Cl)cc1)NC(=O)[C@@H](Cc1ccc2ccccc2c1)NC(=O)CNC(=O)[C@H]1CCCO1)C(=O)N[C@@H](CCCCNC(C)C)C(=O)N1CCC[C@H]1C(=O)N[C@H](C)C(N)=O [Example 5, N-(R) Tetrahydrofur-2-oyl-Gly-D2Nal-D4ClPhe-D3Pal-Ser-NMeTyr-DLys(Nicotinyl) -Le u-Lys(N-epsilon-Isopropyl)-Pro-DAlaNH2]",0.0214 nM
6,"CC(C)C[C@H](NC(=O)[C@@H](CCCCNC(=O)c1cccnc1)NC(=O)[C@H](Cc1ccc(O)cc1)N(C)C(=O)[C@H](CO)NC(=O)[C@@H](Cc1cccnc1)NC(=O)[C@@H](Cc1ccc(Cl)cc1)NC(=O)[C@@H](Cc1ccc2ccccc2c1)NC(=O)CCNC(=O)c1cccnc1)C(=O)N[C@@H](CCCCNC(C)C)C(=O)N1CCC[C@H]1C(=O)N[C@H](C)C(N)=O [Example 6a, N-Nicotinyl-3Aminopropionyl-D2Nal-D4ClPhe-D3Pal-Ser-NMeTyr-DLys(N-epsilon- Nicotinyl) -Leu-Lys(N-epsilon-Isopropyl)-Pro-DAlaNH2] ({Nicotinoyl-βAla}-[d2Nal][dPhe(4-Cl)][d3Pal]S[NMeY][dK](Nicotinoyl)L[Lys(iPr)]P[dA]-NH2)",0.00891 nM
7,"CC(C)C[C@H](NC(=O)[C@@H](CCCCNC(=O)c1cccnc1)NC(=O)[C@H](Cc1ccc(O)cc1)N(C)C(=O)[C@H](CO)NC(=O)[C@@H](Cc1cccnc1)NC(=O)[C@@H](Cc1ccc(Cl)cc1)NC(=O)[C@@H](Cc1ccc2ccccc2c1)NC(=O)CCNC(=O)C1=C[C@@H](O)[C@@H](O)[C@H](O)C1)C(=O)N[C@@H](CCCCNC(C)C)C(=O)N1CCC[C@H]1C(=O)N[C@H](C)C(N)=O [Example 6b, N-Shikimyl-3Aminopropionyl-D2Nal-D4ClPhe-D3Pal-Ser-NMeTyr-DLys(N-epsilon-Nicotinyl) -Leu-Lys(N-epsilon-Isopropyl)-Pro-DAlaNH2] ({Shikimoyl-βAla}-[d2Nal][dPhe(4-Cl)][d3Pal]S[NMeY][dK](Nicotinoyl)L[Lys(iPr)]P[dA]-NH2)",0.0158 nM
8,"CC(C)C[C@H](NC(=O)[C@@H](CCCCNC(=O)c1cccnc1)NC(=O)[C@H](Cc1ccc(O)cc1)N(C)C(=O)[C@H](CO)NC(=O)[C@@H](Cc1cccnc1)NC(=O)[C@@H](Cc1ccc(Cl)cc1)NC(=O)[C@@H](Cc1ccc2ccccc2c1)NC(=O)CCCNC(=O)c1cccnc1)C(=O)N[C@@H](CCCCNC(C)C)C(=O)N1CCC[C@H]1C(=O)N[C@H](C)C(N)=O [Example 6c, N-Nicotinyl-4Aminobutyryl-D2Nal-D4ClPhe-D3Pal-Ser-NMeTyr-DLys(N-epsilon-Nicotinyl) -Leu-Lys(N-epsilon-Isopropyl)-Pro-DAlaNH2] ({Nicotinoyl-GABA}-[d2Nal][dPhe(4-Cl)][d3Pal]S[NMeY][dK](Nicotinoyl)L[Lys(iPr)]P[dA]-NH2)",0.0224 nM
9,"CC(C)C[C@H](NC(=O)[C@@H](CCCCNC(=O)c1cccnc1)NC(=O)[C@H](Cc1ccc(O)cc1)N(C)C(=O)[C@H](CO)NC(=O)[C@@H](Cc1cccnc1)NC(=O)[C@@H](Cc1ccc(Cl)cc1)NC(=O)[C@@H](Cc1ccc2ccccc2c1)NC(=O)CCCNC(=O)C1=C[C@@H](O)[C@@H](O)[C@H](O)C1)C(=O)N[C@@H](CCCCNC(C)C)C(=O)N1CCC[C@H]1C(=O)N[C@H](C)C(N)=O [Example 6d, N-Shikimyl-4-Aminobutyryl-D2Nal-D4ClPhe-D3Pal-Ser-NMeTyr-DLys(N-epsilon-Nicotinyl) -Leu-Lys(N-epsilon-Isopropyl)-Pro-DAlaNH2] ({Shikimoyl-GABA}-[d2Nal][dPhe(4-Cl)][d3Pal]S[NMeY][dK](Nicotinoyl)L[Lys(iPr)]P[dA]-NH2)",0.0126 nM
10,"CC(C)C[C@H](NC(=O)[C@@H](CCCCNC(=O)c1cccnc1)NC(=O)[C@H](Cc1ccc(O)cc1)N(C)C(=O)[C@H](CO)NC(=O)[C@@H](Cc1cccnc1)NC(=O)[C@@H](Cc1ccc(Cl)cc1)NC(=O)[C@@H](Cc1ccc2ccccc2c1)NC(=O)CCCCNC(=O)C1=C[C@@H](O)[C@@H](O)[C@H](O)C1)C(=O)N[C@@H](CCCCNC(C)C)C(=O)N1CCC[C@H]1C(=O)N[C@H](C)C(N)=O [Example 6f, N-Shikimyl-5Aminovaleryl-D2Nal-D4ClPhe-D3Pal-Ser-NMeTyr-DLys(N-epsilon-Nicotinyl) -Leu-Lys(N-epsilon-Isopropyl)-Pro-DAlaNH2] ({Shikimoyl-Ava}-[d2Nal][dPhe(4-Cl)][d3Pal]S[NMeY][dK](Nicotinoyl)L[Lys(iPr)]P[dA]-NH2)",0.0257 nM
11,"CC(C)C[C@H](NC(=O)[C@@H](CCCCNC(=O)c1cccnc1)NC(=O)[C@H](Cc1ccc(O)cc1)N(C)C(=O)[C@H](CO)NC(=O)[C@@H](Cc1cccnc1)NC(=O)[C@@H](Cc1ccc(Cl)cc1)NC(=O)[C@@H](Cc1ccc2ccccc2c1)NC(=O)[C@@H](CO)NC(=O)C1=C[C@@H](O)[C@@H](O)[C@H](O)C1)C(=O)N[C@@H](CCCCNC(C)C)C(=O)N1CCC[C@H]1C(=O)N[C@H](C)C(N)=O [Example 7, N-Shikimyl-DSer-D2Nal-D4ClPhe-D3Pal-Ser-NMeTyr-DLys(N-epsilon-Nicotinyl) -Leu-Lys(N-epsilon-Isopropyl)-Pro-DAlaNH2] (Shikimoyl-[dS][d2Nal][dPhe(4-Cl)][d3Pal]S[NMeY][dK](Nicotinoyl)L[Lys(iPr)]P[dA]-NH2)",0.0263 nM
12,"CC(C)C[C@H](NC(=O)[C@@H](CCCCNC(=O)CNC(=O)c1cccnc1)NC(=O)[C@H](Cc1ccc(O)cc1)N(C)C(=O)[C@H](CO)NC(=O)[C@@H](Cc1cccnc1)NC(=O)[C@@H](Cc1ccc(Cl)cc1)NC(=O)[C@@H](Cc1ccc2ccccc2c1)NC(=O)CNC(=O)c1cccnc1)C(=O)N[C@@H](CCCCNC(C)C)C(=O)N1CCC[C@H]1C(=O)N[C@H](C)C(N)=O [Example 8, N-Nicotinyl-Gly-D2Nal-D4ClPhe-D3Pal-Ser-NMeTyr-DLys(Gly-Nicotinyl)-Leu-Lys (N-epsilon-Isopropyl)-Pro-DAlaNH2] (Nicotinoyl-G[d2Nal][dPhe(4-Cl)][d3Pal]S[NMeY][dK]([Gly-Nicotinoyl])L[Lys(iPr)]P[dA]-NH2)",0.0204 nM
